Measurements taken from paper PMC10208956, “Microbial peptides activate tumour-infiltrating lymphocytes in glioblastoma” (Nature, 2023).

System: bulk TILs (patient 1635WI)
Assay: Cytokine and chemokine secretion of bulk TILs stimulated with IPdBPs
Format: cell-based, human
Set-up: key to CD40 Ligand / Flt-3 Ligand / GM-CSF / Granzyme B / IFN-α / IFN-γ / IL-1rα / IL-1α / IL-1β / IL-2 / IL-3 / IL-4 / IL-5 / IL-6 / IL-7 / IL-10 / IL-12p70 / IL-13 / IL-15 / IL-17A / IL-33 / TNF-α / RANTES: pg/mL, negative-control amount subtracted; CXCL2/GROβ / CXCL10/IP-10 / CCL2/MCP-1 / CCL3/MIP-1α / CCL4/MIP-1β: unit not given beside the values
Conditions: secretion by bulk TILs after peptide stimulation; sheet 1e
Text: Fig. 1 Elution of HLA class II-presented bacterial peptides from 19 glioblastomas and the stimulatory effect of IPdBPs on bulk TILs. a, Schematic of the immunopeptidome analyses of glioblastoma tissue, from which eluted peptides were annotated using the UniProt bacteria database (1). TILs or peripheral memory T cells were stimulated with IPdBPs (2 and 3). LC–MS, liquid chromatography–mass spectrometry; PBMC, peripheral blood mononuclear cell. The images in panel a were created using BioRender (https://biorender.com). b, Number of unique IPdBPs in patients with glioblastoma (n = 19) (data from patient 1635WI contains both primary and recurrent tumours together), with 344 unique IPdBPs identified (left). These peptides originated from 255 and 199 unique proteins and bacteria, respectively (3 technical replicates). […] As a control, peptidome data were also annotated using human protein database to identify eluted self-peptides. As shown, most of HLA class II-bound peptides are self-(human) peptides. IPdBPs of primary (bottom left, n = 18) and recurrent (bottom right, n = 23) tumours were separately annotated to their source bacteria at the phylum level. d, Bulk TILs (patient 1635WI) were stimulated with IPdBPs (See Supplementary Table 8), each in five replicate wells, and proliferation was measured after 5 days via ^3H-thymidine incorporation. […] The data are expressed as the mean value of all wells ± s.e.m. SIN3A* peptide was used as a positive control as TILs recognize this tumour antigen. T cells with APCs without any stimuli were used as a negative control. e, Heatmap of cytokine and chemokine secretion of TILs stimulated with three IPdBPs, which weakly stimulated proliferation. The secretion of each cytokine and chemokine was calculated by subtracting the corresponding cytokine and chemokine amount (pg ml^−1) of the negative control. TILs with APCs without any stimuli were used as a negative control. Also see Extended Data Fig. 1. Source data
Supernatants from each experiment were harvested a day before adding thymidine and frozen at −20 °C. Cytokines were measured using ELISA for human IFNγ ELISA MAX (BioLegend), human GM-CSF DuoSet ELISA (R&D Systems) and bead-based assays. A Synergy H1 hybrid multi-mode reader (Agilent) was used to measure the absorbance. The LEGENDplex Multi-analyte Flow Assay kit (BioLegend) is a 13-plex human TH cytokine panel, which includes IFNγ, TNF, IL-2, IL-4, IL-5, IL-6, IL-9, IL-10, IL-13, IL-17A, IL-17F, IL-21 and IL-22. […] LSR Fortessa Flow Cytometer (BD Biosciences) was used to measure cytokines, and data were analysed using FlowJo (Tree Star). The Human XL Cytokine Luminex Performance Assay Fixed Panel (R&D Systems) contains 45 analytes covering a broad range of various chemokines and cytokines.

Ac-QPVEFNHAIHYVN-NH2 [SIN3A*] showed a CCL2/MCP-1 of 2816.44, a CCL3/MIP-1α of 29.38 and a CCL4/MIP-1β of 288.41. For the same substance, the CCL11/Eotaxin was 0, the CCL19/MIP-3β was 3.84 and the CCL20/MIP-3α was 5.69. For the same substance, the “CD40 Ligand” value was 1225.7, the CXCL1/GROα was 401.05 and the CXCL2/GROβ was 208.21. The CXCL8/IL-8 was 3621.56, the CXCL10/IP-10 was 192.55 and the “Flt-3 Ligand” value was 87.97. The GM-CSF was 322.89, the “Granzyme B” value was 136.59 and the IFN-α was 1.52. For the same substance, the IFN-γ was 41.34, the IL-1rα was 1593.54 and the IL-1α was 6.01. It also gave an IL-1β of 5.99, an IL-2 of 5.92 and an IL-3 of 55.24. For the same substance, the IL-4 was 3.08, the IL-5 was 16.46 and the IL-6 was 23.1. For the same substance, the IL-7 was 0.95, the IL-10 was 62.69 and the IL-12p70 was 0. The IL-13 was 67.23, the IL-15 was 2.11 and the IL-17A was 2.07. It also gave an IL-17E/IL-25 of 0, an IL-33 of 6.61 and an RANTES of 135. The TNF-α was 366.07.
